Data taken from patent US20190249218A1, “Method, Medium and Kit for Detecting Multiple Aminoglycoside Resistance Including 16S rRNA Methylase Mediated Resistance in Gram-Negative Bacteria” (priority 2016, published 2019).
≈ marks a conversion by molar mass, not a printed value. Read-outs that look alike come from different tables or passages of the source.

Columns and labels:
Assay in all cases: MIC by broth microdilution
E. coli = type: cell-based, Escherichia coli; details: for MIC: Escherichia coli, read-out: MIC
Procedure: (§1) MICs of amikacin and gentamicin were determined using the broth microdilution method in cation-adjusted Mueller-Hinton broth, as recommended by the Clinical Laboratory Standard Institute (CLSI) guidelines (8). Amikacin and gentamicin sulfate (Fluorochem, Dertbyshire, UK) were tested over a range of dilutions from 0.25 to 256 μg/ml. A final inoculum of 5.10^5 CFU/ml of each strain was distributed in the 96 wells tray (Sarstedt, Ntimbrecht, Germany). All experiments were repeated in triplicate and E. coli ATCC 25922 was used as quality control. According to the CLSI breakpoints (9), Enterobacteriaceae isolates with gentamicin MICs≤4 and amikacin MICs≤16 mg/L were categorized as susceptible, while those with gentamicin MICs≥16 and amikacin MICs≥64 mg/L were categorized as resistant.
(§2) MICs of amikacin and gentamicin were determined as described above in Example 1.

E. cloacae = type: cell-based, Enterobacter cloacae; details: for MIC: Enterobacter cloacae, read-out: MIC
Procedure: as §1, §2

P. rettgeri = type: cell-based, Providencia rettgeri; details: AAC(2′)
Procedure: as §1, §2

[1] = isolate R4100, E. coli TOP10, npmA
[2] = isolate RP4, E. coli, APH(3′)-Ib
[3] = isolate pFCT1163, E. coli, AAC(6′)-Ia
[4] = isolate pFCT4392, E. coli, AAC(3)-Ia
[5] = isolate pWP701, E. coli, AAC(3)-IV
[6] = isolate 1110, E. cloacae, ANT(2″)
[7] = isolate HM, E. cloacae, AG susceptible
[8] = isolate R713, E. cloacae, AG susceptible
[9] = isolate R1433, E. cloacae, AG susceptible
[10] = isolate R2258, E. cloacae, armA

In the case of `NCC[C@H](O)C(=O)N[C@@H]1C[C@H](N)[C@@H](O[C@H]2O[C@H](CN)[C@@H](O)[C@H](O)[C@H]2O)[C@H](O)[C@H]1O[C@H]1O[C@H](CO)[C@@H](O)[C@H](N)[C@H]1O` [Amikacin], the MIC (E. coli; [1]) is reported as 128 mg/L (≈ 219 µM), the MIC (E. coli; [2]) is reported as 1 mg/L (≈ 1.71 µM) and the MIC (E. coli; [3]) is reported as 128 mg/L (≈ 219 µM). The MIC (E. coli; [4]) was 1 mg/L (≈ 1.71 µM), the MIC (E. coli; [5]) was 1 mg/L (≈ 1.71 µM) and the MIC (E. coli; strain 62Carb, E. coli, rmtB) was over 512 mg/L. For the same compound, the MIC (E. coli; strain 92/31, E. coli, AAC(3)-IV) was 4 mg/L (≈ 6.83 µM), the MIC (E. coli; strain 97, E. coli, AAC(3)-IV) was 2 mg/L (≈ 3.42 µM) and the MIC (E. coli; strain 390, E. coli, AAC(3)-IV) was 16 mg/L (≈ 27.3 µM). The MIC (E. coli; strain 1054a, E. coli, AAC(6′)-I) was 8 mg/L (≈ 13.7 µM), the MIC (E. coli; strain 1054b, E. coli, AAC(6′)-I) was 16 mg/L (≈ 27.3 µM) and the MIC (E. coli; strain 1488, E. coli, AAC(6′)-II) was 4 mg/L (≈ 6.83 µM). The MIC (E. coli; strain 4000, E. coli, APH(3′)-I + AAC(3)-V) was 4 mg/L, the MIC (E. coli; strain 22089, E. coli, AAC(3)-I + AAC(3)-V) was 16 mg/L and the MIC (E. coli; strain 122971, E. coli, ANT(2″)) was 4 mg/L (≈ 6.83 µM). It also gave an MIC (E. coli; strain E28, E. coli, rmtB) of over 512 mg/L, an MIC (E. coli; strain R107, E. coli, rmtB) of over 512 mg/L and an MIC (E. coli; strain R1012, E. coli, armA) of over 512 mg/L. It also gave an MIC (E. coli; strain R1436, E. coli, susceptible) of 2 mg/L (≈ 3.42 µM), an MIC (E. coli; strain R1438, E. coli, susceptible) of 2 mg/L (≈ 3.42 µM) and an MIC (E. coli; strain R4100, E. coli, npmA) of 258 mg/L (≈ 441 µM). The MIC (E. coli; strain RP4, E. coli, APH(3′)-Ib) was 1 mg/L (≈ 1.71 µM), the MIC (E. coli; strain pFCT1163, E. coli, AAC(6′)-Ia) was 128 mg/L (≈ 219 µM) and the MIC (E. coli; strain pFCT4392, E. coli, AAC(3)-Ia) was 1 mg/L (≈ 1.71 µM). For the same compound, the MIC (E. coli; strain pWP701, E. coli, AAC(3)-IV) was 1 mg/L (≈ 1.71 µM), the “Amikacin Phenotype” value (E. coli; isolate 62Carb, E. coli, rmtB) was “R (amikacin MICs≥64 mg/L were categorized as resistant)” and the “Amikacin Phenotype” value (E. coli; isolate 92/31, E. coli, AAC(3)-IV) was “S (amikacin MICs≤16 mg/L were categorized as susceptible)”. For the same compound, the “Amikacin Phenotype” value (E. coli; isolate 97, E. coli, AAC(3)-IV) was “S (amikacin MICs≤16 mg/L were categorized as susceptible)”, the “Amikacin Phenotype” value (E. coli; isolate 390, E. coli, AAC(3)-IV) was “S (amikacin MICs≤16 mg/L were categorized as susceptible)” and the “Amikacin Phenotype” value (E. coli; isolate 1054 (first entry), E. coli, AAC(6′)-I) was “S (amikacin MICs≤16 mg/L were categorized as susceptible)”. For the same compound, the “Amikacin Phenotype” value (E. coli; isolate 1054 (second entry), E. coli, AAC(6′)-I) was “S (amikacin MICs≤16 mg/L were categorized as susceptible)”, the “Amikacin Phenotype” value (E. coli; isolate 1488, E. coli, AAC(6′)-II) was “S (amikacin MICs≤16 mg/L were categorized as susceptible)” and the “Amikacin Phenotype” value (E. coli; isolate 4000, E. coli, APH(3′)-I + AAC(3)-V) was “S (amikacin MICs≤16 mg/L were categorized as susceptible)”. For the same compound, the “Amikacin Phenotype” value (E. coli; isolate 22089, E. coli, AAC(3)-I + AAC(3)-V) was “S (amikacin MICs≤16 mg/L were categorized as susceptible)”, the “Amikacin Phenotype” value (E. coli; isolate 122971, E. coli, ANT(2″)) was “S (amikacin MICs≤16 mg/L were categorized as susceptible)” and the “Amikacin Phenotype” value (E. coli; isolate E28, E. coli, rmtB) was “R (amikacin MICs≥64 mg/L were categorized as resistant)”. The “Amikacin Phenotype” value (E. coli; isolate FR136, E. coli ATCC 25922, AG susceptible) was “S (amikacin MICs≤16 mg/L were categorized as susceptible)”, the “Amikacin Phenotype” value (E. coli; isolate R107, E. coli, rmtB) was “R (amikacin MICs≥64 mg/L were categorized as resistant)” and the “Amikacin Phenotype” value (E. coli; isolate R262, E. coli, rmtC) was “R (amikacin MICs≥64 mg/L were categorized as resistant)”. For the same compound, the “Amikacin Phenotype” value (E. coli; isolate R451, E. coli, rmtC) was “R (amikacin MICs≥64 mg/L were categorized as resistant)”, the “Amikacin Phenotype” value (E. coli; isolate R989, E. coli, armA) was “R (amikacin MICs≥64 mg/L were categorized as resistant)” and the “Amikacin Phenotype” value (E. coli; isolate R990, E. coli, rmtB) was “R (amikacin MICs≥64 mg/L were categorized as resistant)”. The “Amikacin Phenotype” value (E. coli; isolate R1012, E. coli, armA) was “R (amikacin MICs≥64 mg/L were categorized as resistant)”, the “Amikacin Phenotype” value (E. coli; isolate R1436, E. coli, AG susceptible) was “S (amikacin MICs≤16 mg/L were categorized as susceptible)” and the “Amikacin Phenotype” value (E. coli; isolate R1438, E. coli, AG susceptible) was “S (amikacin MICs≤16 mg/L were categorized as susceptible)”. For the same compound, the “Amikacin Phenotype” value (E. coli; isolate R2278, E. coli ATCC 35218, AG susceptible) was “S (amikacin MICs≤16 mg/L were categorized as susceptible)”, the “Amikacin Phenotype” value (E. coli; [1]) was “R (amikacin MICs≥64 mg/L were categorized as resistant)” and the “Amikacin Phenotype” value (E. coli; [2]) was “S (amikacin MICs≤16 mg/L were categorized as susceptible)”. The “Amikacin Phenotype” value (E. coli; [3]) was “R (amikacin MICs≥64 mg/L were categorized as resistant)”, the “Amikacin Phenotype” value (E. coli; [4]) was “S (amikacin MICs≤16 mg/L were categorized as susceptible)” and the “Amikacin Phenotype” value (E. coli; [5]) was “S (amikacin MICs≤16 mg/L were categorized as susceptible)”. It also gave an MIC (E. cloacae; [6]) of 1 mg/L (≈ 1.71 µM), an MIC (E. cloacae; [7]) of 4 mg/L (≈ 6.83 µM) and an MIC (E. cloacae; [8]) of 4 mg/L (≈ 6.83 µM). It also gave an MIC (E. cloacae; [9]) of 4 mg/L (≈ 6.83 µM), an MIC (E. cloacae; [10]) of over 256 mg/L and an MIC (E. cloacae; strain 1110, E. cloacae, ANT(2″)) of 1 mg/L (≈ 1.71 µM). It also gave an MIC (E. cloacae; strain HM, E. cloacae, susceptible) of 4 mg/L (≈ 6.83 µM), an MIC (E. cloacae; strain R713, E. cloacae, susceptible) of 4 mg/L (≈ 6.83 µM) and an MIC (E. cloacae; strain R1433, E. cloacae, susceptible) of 4 mg/L (≈ 6.83 µM). For the same compound, the MIC (E. cloacae; strain R2258, E. cloacae, armA) was over 512 mg/L, the “Amikacin Phenotype” value (E. cloacae; [6]) was “S (amikacin MICs≤16 mg/L were categorized as susceptible)” and the “Amikacin Phenotype” value (E. cloacae; [7]) was “S (amikacin MICs≤16 mg/L were categorized as susceptible)”. For the same compound, the “Amikacin Phenotype” value (E. cloacae; [8]) was “S (amikacin MICs≤16 mg/L were categorized as susceptible)”, the “Amikacin Phenotype” value (E. cloacae; [9]) was “S (amikacin MICs≤16 mg/L were categorized as susceptible)” and the “Amikacin Phenotype” value (E. cloacae; [10]) was “R (amikacin MICs≥64 mg/L were categorized as resistant)”. For the same compound, the MIC (P. rettgeri; Providencia rettgeri, isolate 531, P. rettgeri, read-out: MIC) was 16 mg/L (≈ 27.3 µM), the “Amikacin Phenotype” value (P. rettgeri; isolate 531, P. rettgeri) was “S (amikacin MICs≤16 mg/L were categorized as susceptible)” and the MIC (P. rettgeri; strain 531, P. rettgeri) was 16 mg/L (≈ 27.3 µM).
